Converted amounts (≈) assume the structure as drawn.
Legend:
Experiment in all cases: MIC, CLSI broth microdilution, Test Example 2
Assay type in all cases: cell-based
[1] = system: P. aeruginosa SR01332; conditions: Pseudomonas aeruginosa, SR01332; VIM-11 MBL producing strain (carbapenem resistance strain); cation-adjusted Iso-Sensitest broth containing human Apo-transferrin; 5×10^5 cfu/mL; read-out: Minimum Inhibitory Concentration (MIC) P. aeruginosa SR01332
Description: (§1) Measurement of Minimum Inhibitory Concentration (MIC: μg/mL) was conducted according to CLSI (Clinical and Laboratory Standards Institute) method, and the amount of bacteria for inoculation was 5×10^5 cfu/mL, and cation-adjusted Iso-Sensitest broth containing human Apo-transferrin was used as a test medium, and the experiment was conducted using broth microdilution method.

[2] = system: E. coli SR01337; conditions: Escherichia coli, SR01337; TEM-1 ESBL producing strain; cation-adjusted Iso-Sensitest broth containing human Apo-transferrin; 5×10^5 cfu/mL; read-out: Minimum Inhibitory Concentration (MIC) E. coli SR01337
Description: as §1

[3] = system: E. cloacae NCTC13464; conditions: Enterobacter cloacae, NCTC13464; CTX-M group 9 ESBL producing strain; cation-adjusted Iso-Sensitest broth containing human Apo-transferrin; 5×10^5 cfu/mL; read-out: Minimum Inhibitory Concentration (MIC) E. cloacae NCTC 13464
Description: as §1

[4] = system: K. pneumoniae ATCC700603; conditions: Klebsiella pneumoniae, ATCC700603; SHV18 ESBL producing strain; cation-adjusted Iso-Sensitest broth containing human Apo-transferrin; 5×10^5 cfu/mL; read-out: Minimum Inhibitory Concentration (MIC) K. pneumoniae ATCC 700603
Description: as §1

[5] = system: P. aeruginosa SR01335; conditions: Pseudomonas aeruginosa, SR01335; VIM-1 like MBL producing strain (carbapenem resistance strain); cation-adjusted Iso-Sensitest broth containing human Apo-transferrin; 5×10^5 cfu/mL; read-out: Minimum Inhibitory Concentration (MIC) P. aeruginosa SR01335
Description: as §1

[6] = system: E. coli ATCCBAA-200; conditions: Escherichia coli, ATCCBAA200; SHV-4 ESBL producing strain; cation-adjusted Iso-Sensitest broth containing human Apo-transferrin; 5×10^5 cfu/mL; read-out: Minimum Inhibitory Concentration (MIC) E. coli ATCC BAA-200
Description: as §1

[7] = system: A. baumannii SR01331; conditions: Acinetobacter baumannii, SR01331; PER-1, OXA-23.51 ESBL- & OXA-type carbapenemase producing strain; cation-adjusted Iso-Sensitest broth containing human Apo-transferrin; 5×10^5 cfu/mL; read-out: Minimum Inhibitory Concentration (MIC) A. baumannii SR01331
Description: as §1

[8] = system: E. coli ATCCBAA-196; conditions: Escherichia coli, ATCCBAA196; TEM-10 ESBL producing strain; cation-adjusted Iso-Sensitest broth containing human Apo-transferrin; 5×10^5 cfu/mL; read-out: Minimum Inhibitory Concentration (MIC) E. coli ATCC BAA-196
Description: as §1

Structure (SMILES)	MIC [1] [µg/mL]	MIC [2] [µg/mL]	MIC [3] [µg/mL]	MIC [4] [µg/mL]	MIC [5] [µg/mL]	MIC [6] [µg/mL]	MIC [7] [µg/mL]	MIC [8] [µg/mL]
CC(C)(O/N=C(\C(=O)N[C@@H]1C(=O)N2C(c3nnn[nH]3)=C(C[N+]3(CCNC(=O)c4ccc(O)c(O)c4F)CCCC3)CS[C@H]12)c1nc(N)sc1Cl)C(=O)[O-] [Compound I-106]	4 (≈ 5.04 µM)	≤ 0.031	0.063 (≈ 0.0793 µM)	≤ 0.031	1 (≈ 1.26 µM)	0.063 (≈ 0.0793 µM)	0.5 (≈ 0.63 µM)	≤ 0.031
CC(C)(O/N=C(\C(=O)N[C@@H]1C(=O)N2C(c3nnn[nH]3)=C(C[N+]34CCCC3CN(C(=O)c3cc(O)c(O)c(Cl)c3)CC4)CS[C@H]12)c1nsc(N)n1)C(=O)[O-] (stereo partly shown) [Compound I-122]	4 (≈ 5.07 µM)	≤ 0.031	0.063 (≈ 0.0798 µM)	0.125 (≈ 0.158 µM)	1 (≈ 1.27 µM)	0.25 (≈ 0.317 µM)	0.25 (≈ 0.317 µM)	0.125 (≈ 0.158 µM)
CC(C)(O/N=C(\C(=O)N[C@@H]1C(=O)N2C(c3nnn[n-]3)=C(C[N@+]34CCC[C@H]3CN(C(=O)c3cc(O)c(O)c(Cl)c3)CC4)CS[C@H]12)c1nc(N)sc1Cl)C(=O)[O-].[Na+] [Compound I-29]	4	≤ 0.031	0.063	0.125	2	0.063	0.5	≤ 0.031
CC(C)(O/N=C(\C(=O)N[C@@H]1C(=O)N2C(c3nnn[n-]3)=C(C[N+]3(CCNC(=O)c4ccc(O)c(O)c4Cl)CCCCC3)CS[C@H]12)c1csc(N)n1)C(=O)[O-].[Na+] [Compound I-69]	2	≤ 0.031	0.063	0.125	2	0.125	0.5	0.125
CC(C)(O/N=C(\C(=O)N[C@@H]1C(=O)N2C(c3nnn[n-]3)=C(C[n+]3ccc(NC(=O)c4ccc(O)c(O)c4Cl)cc3)CS[C@H]12)c1nsc(N)n1)C(=O)[O-].[Na+] [Compound I-116]	2	≤ 0.031	≤ 0.031	0.25	1	1	0.25	0.5
CC(C)(O/N=C(\C(=O)N[C@@H]1C(=O)N2C(c3nnn[nH]3)=C(C[N+]3(C)[C@@H]4CC[C@H]3C[C@@H](NC(=O)c3cc(O)c(O)c(F)c3)C4)CS[C@H]12)c1nsc(N)n1)C(=O)O.[Na+] (stereo partly shown) [Compound I-117]	4	0.063	0.5	0.25	2	1	0.5	1
Nc1nc(/C(=N/O[C@@H](CC(=O)[O-])C(=O)[O-])C(=O)N[C@@H]2C(=O)N3C(c4nnn[n-]4)=C(C[N+]45CCC[C@H]4CN(C(=O)c4cc(O)c(O)c(F)c4)CC5)CS[C@H]23)cs1.[Na+].[Na+] (stereo partly shown) [Compound I-63]	2	0.063	0.25	0.25	2	0.25	1	0.063
Nc1nc(/C(=N/O[C@@H](CC(=O)O)C(=O)[O-])C(=O)N[C@@H]2C(=O)N3C(c4nnn[nH]4)=C(C[N+]4(CCNC(=O)c5ccc(O)c(O)c5F)CCCC4)CS[C@H]23)c(Cl)s1 [Compound I-103]	2 (≈ 2.43 µM)	≤ 0.031	0.125 (≈ 0.152 µM)	0.5 (≈ 0.607 µM)	1 (≈ 1.21 µM)	0.125 (≈ 0.152 µM)	0.25 (≈ 0.303 µM)	≤ 0.031
Cc1cc2cc(O)c(O)cc2c[n+]1CC1=C(c2nnn[n-]2)N2C(=O)[C@@H](NC(=O)/C(=N\OC(C)(C)C(=O)[O-])c3nc(N)sc3Cl)[C@H]2SC1.[Na+] [Compound I-38]	0.5	≤ 0.031	0.125	0.125	1	0.25	0.5	0.063
CC(C)(O/N=C(\C(=O)N[C@@H]1C(=O)N2C(c3nnn[n-]3)=C(C[N@+]34CCC[C@H]3CN(C(=O)c3cc(O)c(O)c(F)c3)CC4)CS[C@H]12)c1nc(N)sc1Cl)C(=O)[O-].[Na+] [Compound I-34]	4	≤ 0.031	0.5	0.5	2	0.25	1	0.063
C[N+]1(CC2=C(c3nnn[n-]3)N3C(=O)[C@@H](NC(=O)/C(=N\O[C@@H](CC(=O)[O-])C(=O)[O-])c4csc(N)n4)[C@H]3SC2)CCN(C(=O)c2ccc(O)c(O)c2Cl)CC1.[Na+].[Na+] [Compound I-61]	4	0.063	0.125	0.125	4	0.25	1	0.063
C[N+]1(CC2=C(c3nnn[nH]3)N3C(=O)[C@@H](NC(=O)/C(=N\O[C@@H](CC(=O)O)C(=O)O)c4nc(N)sc4Cl)[C@H]3SC2)[C@@H]2CC[C@H]1C[C@@H](NC(=O)c1ccc(O)c(O)c1Cl)C2.[Na+].[Na+] (stereo partly shown) [Compound I-96]	4	0.125	0.5	1	2	1	0.25	0.25
Nc1nc(/C(=N/OC(C(=O)[O-])C(=O)[O-])C(=O)N[C@@H]2C(=O)N3C(C(=O)[O-])=C(C[N+]45CCC(CNC(=O)c6ccc(O)c(O)c6Cl)(CC4)CC5)CS[C@H]23)cs1.[Na+].[Na+] (stereo partly shown) [Comparative Compound 2, reference compound]	32	> 32	0.5	0.5	4	1	> 32	0.5
CC(C)(O/N=C(\C(=O)N[C@@H]1C(=O)N2C(c3nnn[nH]3)=C(C[N@+]34CCC[C@H]3CN(C(=O)c3ccc(O)c(O)c3Cl)CC4)CS[C@H]12)c1csc(N)n1)C(=O)[O-] [Compound I-98]	8 (≈ 10.1 µM)	≤ 0.031	0.125 (≈ 0.159 µM)	0.25 (≈ 0.317 µM)	2 (≈ 2.54 µM)	0.5 (≈ 0.634 µM)	1 (≈ 1.27 µM)	0.25 (≈ 0.317 µM)
CC(C)(O/N=C(\C(=O)N[C@@H]1C(=O)N2C(c3nnn[nH]3)=C(C[n+]3cccc4c3CCCN4C(=O)c3ccc(O)c(O)c3Cl)CS[C@H]12)c1nsc(N)n1)C(=O)O.[Na+] [Compound I-115]	2	≤ 0.031	1	0.5	1	1	0.5	1
Nc1nc(/C(=N/O[C@@H](CC(=O)O)C(=O)[O-])C(=O)N[C@@H]2C(=O)N3C(c4nnn[nH]4)=C(C[N+]4(CCNC(=O)c5ccc(O)c(O)c5F)CCCC4)CS[C@H]23)cs1 [Compound I-102]	4 (≈ 5.06 µM)	≤ 0.031	0.063 (≈ 0.0798 µM)	≤ 0.031	1 (≈ 1.27 µM)	0.063 (≈ 0.0798 µM)	0.25 (≈ 0.317 µM)	≤ 0.031
CC(C)(O/N=C(\C(=O)N[C@@H]1C(=O)N2C(c3nnn[nH]3)=C(C[N+]3(CCNC(=O)c4cc(O)c(O)c(Cl)c4)CCCC3)CS[C@H]12)c1nsc(N)n1)C(=O)[O-] [Compound I-119]	4 (≈ 5.15 µM)	≤ 0.031	0.125 (≈ 0.161 µM)	0.25 (≈ 0.322 µM)	2 (≈ 2.57 µM)	0.5 (≈ 0.643 µM)	0.5 (≈ 0.643 µM)	0.5 (≈ 0.643 µM)
